According to patent US12171230B2, “Herbicidal compositions” (Bayer Aktiengesellschaft, priority 2018, dated 2024):
Where “and” joins values, the source holds several entries; their conditions need not be identical. Equal values may be shown once.

Legend:
Assay type in all cases: in vivo
[1] = tested on: Kochia scoparia; experiment: Post-emergence herbicidal action against Kochia scoparia; conditions: 21 DAT
[2] = tested on: Kochia scoparia; experiment: as above; conditions: g of a.i./ha by row: 30, 5, 5 + 30
Excerpt: (§1) The following abbreviations are used in the description and the tables that follow: • g of a.i./ha=grams of active substance (active ingredient) (=100% active compound) per hectare; • The sum total of the effects of the individual applications is reported under E^A; • expected values according to Colby are each reported under E^C.
(§2) The rating period is reported in days after application (DAT).

[3] = tested on: Bidens pilosa; experiment: Post-emergence herbicidal action against Bidens pilosa; conditions: for Herbicidal action: 21 DAT; for Herbicidal action 21 DAT [%] against Bidens pilosa: post-emergence, block with (B1.7) Mesotrione
Method in brief: (§3)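 Greenhouse pot test, sandy loam; weeds from seed or rhizome. Post-emergence spray at three-leaf stage (3 wk after sowing), 300–800 l/ha water, various dosages. Visual % efficacy vs untreated at 3–4 wk; Colby expected value used to flag synergism.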

[4] = tested on: Eleusine indica; experiment: Post-emergence herbicidal action against Eleusine indica; conditions: 21 DAT
[5] = tested on: Amaranthus palmeri; experiment: Post-emergence herbicidal action against Amaranthus palmeri; conditions: for Herbicidal action: 21 DAT
Method in brief: as §3

[6] = tested on: Echinochloa crus-galli; experiment: Post-emergence herbicidal action against Echinochloa crus-galli; conditions: 21 DAT
Method: (§4) When the observed efficacies exceed the formal sum total of the values of the tests with individual applications, they also exceed the expected value according to Colby, which is calculated using the formula below and is likewise regarded as an indication of synergism (cf. S. R. Colby; in Weeds 15 (1967) p. 20 to 22): E^C=A+B−([…])
(§5) Here: • A=efficacy of the active compound (A) in % at an application rate of a g a.i./ha; • B=efficacy of the active compound (B) in % at an application rate of b g a.i./ha; • E^C=expected value of the effect of the combination (A)+(B) in % at the combined application rate a+b g a.i./ha.
(§6) Seeds or rhizome pieces of mono- and dicotyledonous weeds are placed in sandy loam in pots, covered with soil and grown in a greenhouse under good growth conditions (temperature, air humidity, water supply). Three weeks after sowing, the test plants were treated at the three-leaf stage with the compositions according to the invention. The compositions according to the invention formulated as spray powders or as emulsion concentrates were sprayed onto the green plant parts in various dosages with an application rate of 300 to 800 l/ha of water (equivalent). After the test plants have been left to stand in the greenhouse under optimal growth conditions for about 3 to 4 weeks, the action of the preparations is scored visually in comparison to untreated controls. The compositions according to the invention also have good post-emergence herbicidal activity against a broad spectrum of economically important gramineous and broadleaf weeds.

[7] = tested on: Setaria viridis; experiment: Post-emergence herbicidal action against Setaria viridis; conditions: 21 DAT
Method: as §4, §5, §6

[8] = tested on: Abutilon theophrasti; experiment: Post-emergence herbicidal action against Abutilon theophrasti; conditions: g of a.i./ha: 90, 30, 15, 15 + 90, 15 + 30
Excerpt: as §1, §2

[9] = tested on: Ipomoea hederacea; experiment: Post-emergence herbicidal action against Ipomoea hederacea; conditions: 35 g of a.i./ha
Method: as §4, §5, §6

[10] = tested on: Ranunculus repens; experiment: Post-emergence herbicidal action against Ranunculus repens; conditions: 105 g of a.i./ha
Method: as §4, §5
as §6, with “After the test plants have been left to stand in the greenhouse under optimal growth conditions for about 3 to 4 weeks, the action of the preparations is scored visually in comparison to untreated controls.” left out

[11] = tested on: Lamium purpureum; experiment: Post-emergence herbicidal action against Lamium purpureum; conditions: 105 g of a.i./ha, post-emergence
Method in brief: as §3

[12] = tested on: Panicum maximum; experiment: Post-emergence herbicidal action against Panicum maximum; conditions: 75 g of a.i./ha
Method: as §4, §5, §6

[13] = tested on: Ephilobium hirsutum; experiment: Post-emergence herbicidal action against Ephilobium hirsutum; conditions: 105 g of a.i./ha
Method: as §4, §5
as §6, with “The compositions according to the invention also have good post-emergence herbicidal activity against a broad spectrum of economically important gramineous and broadleaf weeds.” left out

[14] = tested on: Viola arvensis; experiment: Post-emergence herbicidal action against Viola arvensis; conditions: 105 g of a.i./ha
Method: as §4, §5
as §6, with “After the test plants have been left to stand in the greenhouse under optimal growth conditions for about 3 to 4 weeks, the action of the preparations is scored visually in comparison to untreated controls.” left out

[15] = tested on: Bellis perenne; experiment: Post-emergence herbicidal action against Bellis perenne; conditions: 105 g of a.i./ha
Method: as §4, §5
as §6, with “The compositions according to the invention also have good post-emergence herbicidal activity against a broad spectrum of economically important gramineous and broadleaf weeds.” left out

[16] = tested on: Polygonum convolvulus; experiment: Post-emergence herbicidal action against Polygonum convolvulus; conditions: 21 DAT
[17] = tested on: Brachiaria platyphylla; experiment: Post-emergence herbicidal action against Brachiaria platyphylla; conditions: 21 DAT; 150 g a.i./ha
Method: as §4, §5, §6

[18] = tested on: Centaurea cyano; experiment: Post-emergence herbicidal action against Centaurea cyano; conditions: 150 g a.i./ha
Method in brief: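 Greenhouse pot-grown plants sprayed post-emergence at the three-leaf stage, three weeks after sowing, with spray-powder or emulsion-concentrate formulations at various dosages in 300 to 800 l/ha water on green parts.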

[19] = tested on: Poa annua; experiment: Post-emergence herbicidal action against Poa annua; conditions: 28 DAT
Method in brief: as §3

[20] = tested on: Lolium rigidum; experiment: Post-emergence herbicidal action against Lolium rigidum; conditions: 28 DAT; resistant biotype; 50 g a.i./ha
[21] = tested on: Bromus sterilis; experiment: Post-emergence herbicidal action against Bromus sterilis; conditions: 28 DAT; 150 g a.i./ha
[22] = tested on: Pharbitis purpurea; experiment: Post-emergence herbicidal action against Pharbitis purpurea; conditions: 21 DAT; 50 g a.i./ha
Method: as §4, §5, §6

[23] = tested on: Sorghum halepense; experiment: Post-emergence herbicidal action against Sorghum halepense; conditions: 21 DAT
Method: as §4, §5, §6

[24] = tested on: Digitaria sanguinalis; experiment: Post-emergence herbicidal action against Digitaria sanguinalis; conditions: 21 DAT; 450 g a.i./ha
Method: as §4, §5, §6

C=CC1(C(=O)N[C@H]2CO[C@@H](C(=O)OC)C2)CC(c2cc(Cl)cc(Cl)c2)=NO1 (relative stereo) [Compound A2, methyl rel-(2R,4R)-4-[[3-(3,5-dichlorophenyl)-5-vinyl-4H-isoxazole-5-carbonyl]amino]tetrahydrofuran-2-carboxylate]
Herbicidal action ([1]; 5 g a.i./ha): 40%
Herbicidal action 21 DAT against Kochia scoparia [2]: 40%
Herbicidal action ([3]; 5 g a.i./ha): 45%
Herbicidal action ([3]; 15 g a.i./ha): 50%
Herbicidal action ([3]; 45 g a.i./ha): 70%
Herbicidal action ([4]; 1.7 g a.i./ha): 10%
Herbicidal action ([5]; 5 g a.i./ha): 45%
Herbicidal action ([6]; 15 g a.i./ha): 80%
Herbicidal action ([7]; 1.7 g a.i./ha): 10%
Herbicidal action 21 DAT against Abutilon theophrasti [8]: 75%

CCS(=O)(=O)c1cccnc1S(=O)(=O)NC(=O)Nc1nc(OC)cc(OC)n1 [(B2.63) Rimsulfuron]
Herbicidal action 37 DAT against Ipomoea hederacea [9]: 0%

CS(=O)(=O)c1ccc(C(=O)C2C(=O)CCCC2=O)c([N+](=O)[O-])c1 [(B1.7) Mesotrione, mesotrione, reference compound]
Herbicidal action 21 DAT [%] against Bidens pilosa ([3]; 5 g of a.i./ha): 0%
Herbicidal action 21 DAT [%] against Bidens pilosa ([3]; 45 g of a.i./ha): 25%
Herbicidal action 43 DAT [%] against Ranunculus repens [10]: 0%
pest or weed control at 5 g/ha ([5]; Amaranthus palmeri, post-emergence, 504 h, 5 g of a.i./ha, post-emergence, block with (B1.7) Mesotrione, read-out: Herbicidal action 21 DAT [%] against Amaranthus palmeri): 0%
Herbicidal action 32 DAT [%] against Lamium purpureum [11]: 0%
Herbicidal action 28 DAT [%] against Panicum maximum [12]: 0%
Herbicidal action 43 DAT [%] against Ephilobium hirsutum [13]: 0%
Herbicidal action 43 DAT [%] against Viola arvensis [14]: 0%
Herbicidal action 43 DAT [%] against Bellis perenne [15]: 0%

CP(=O)(O)CCC(N)C(=O)O (stereo not shown) [(B7.4) Glufosinate]
Herbicidal action ([1]; 50 g a.i./ha): 20%
Herbicidal action ([1]; 450 g a.i./ha): 80%
Herbicidal action ([16]; 50 g a.i./ha): 10%
Herbicidal action ([16]; 150 g a.i./ha): 20%
Herbicidal action [17]: 70%
Herbicidal action ([3]; 50 g a.i./ha): 30%
Herbicidal action ([3]; 150 g a.i./ha): 75%
Herbicidal action ([3]; 450 g a.i./ha): 75% and 90%
Herbicidal action ([4]; 50 g a.i./ha): 15%
Herbicidal action ([4]; 150 g a.i./ha): 35% and 40%
Herbicidal action ([4]; 450 g a.i./ha): 60%
Herbicidal action ([5]; 50 g a.i./ha): 50%
Herbicidal action ([5]; (res.), 50 g a.i./ha): 35%
Herbicidal action ([5]; (res.), 150 g a.i./ha): 70%
Herbicidal action ([18]; 14 DAT): 60%
Herbicidal action ([18]; 28 DAT): 30%
Herbicidal action ([19]; 50 g a.i./ha): 20%
Herbicidal action ([19]; 150 g a.i./ha): 30%
Herbicidal action ([6]; 150 g a.i./ha): 65%
Herbicidal action [20]: 10%
Herbicidal action [21]: 10%
Herbicidal action [22]: 20%
Herbicidal action ([7]; 50 g a.i./ha): 40% and 20%
Herbicidal action ([23]; 50 g a.i./ha): 20%
Herbicidal action ([23]; 450 g a.i./ha): 5%
Herbicidal action [24]: 85%
